Pest or weed control, mortality and control value data for 21 compounds are collected here from patent publication US10023532B2, “Alkyl phenyl sulfide derivative and pest control agent” (KUMIAI CHEMICAL INDUSTRY CO., LTD., priority 2012, dated 2018).

Test [1] concerns Tetranychus urticae Koch (two spotted spider mite). The experiment in a line: Control effect test for Tetranychus urticae Koch (two spotted spider mite). As to conditions: active ingredient concentration 4 ppm, soybean seedlings with 35 female adults immersed, 25° C., after 13 days, no replication; for pest or weed control at 4 ppm: Tetranychus urticae, 312 h. It counts as in vivo. As for the experimental part: A wettable powder prepared based on Formulation Example 2 was diluted with water into an active ingredient concentration of 4 ppm. In the solution were immersed soybean seedlings which had been inoculated with 35 female adults of two spotted spider mite. The soybean seedlings were dried in the air and placed in a thermostat of 25° C. After 13 days, the number of living female adults was examined and the control value of the active ingredient was determined using the calculation formula of the following Mathematical Expression 1. This test was conducted with no replication. Control value=100−[(number of living female adults after 13 days, in treated seedlings)/(number of living female adults after 13 days, in non-treated seedlings)]×100 [Mathematical Expression 1]
Tests similar to the above were conducted using, as comparative compounds, compound Nos. 22 and 23 described in JP-A-1975-29744, compound Nos. 3, 4, 5, 6 described in JP-A-1976-19121 and compound Nos. 18, 19 and 36 described in JP-A-1988-41451. The structures of these comparative compounds are as follows.

Test [2] relates to Nilaparvata lugens Stál (brown rice planthopper). The experiment in a line: Insecticidal activity test for Nilaparvata lugens Stál (brown rice planthopper). It counts as in vivo. As to conditions: active ingredient concentration 100 ppm, sprouting unhulled rice immersed, 10 3-instar larvae, 25° C., after 6 days, no replication; for mortality at 100 ppm: Nilaparvata lugens, 144 h. As for the experimental part: A wettable powder prepared based on Formulation Example 2 was diluted with water into an active ingredient concentration of 100 ppm. In the solution was immersed sprouting unhulled rice. They were placed in a 60-ml plastic cup. Thereinto were released 10 3-instar larvae of brown rice planthopper. The cup was covered with a lid and placed in a thermostat of 25° C. After 6 days, the number of living insects was counted and the mortality of insect was determined from the calculation formula of the following Mathematical Expression 2. This test was conducted with no replication. Mortality (%)=100−[(number of living insects after 6 days)/(number of tested insects)]×100 [Mathematical Expression 2]
As in the case of Test Example 1, tests similar to the above were conducted using, as comparative compounds, compound Nos. 22 and 23 described in JP-A-1975-29744, compound Nos. 4, 5, 6 described in JP-A-1976-19121 and compound Nos. 18, 19 and 36 described in JP-A-1988-41451.

Broadly, the pest or weed control is the degree to which the test organism was suppressed or injured, in per cent. Low readings indicate weak suppression, high ones strong suppression. The compound `[O-][S+](CC(F)(F)F)c1cc(OCCc2ccc(C(F)(F)F)cc2)c(Cl)cc1Cl` (stereo not shown) [A-0767, 2-(4-trifluoromethylphenyl)ethyl-[2,4-dichloro-5-(2,2,2-trifluoroethylsulfinyl)phenyl] ether] returned a pest or weed control at 4 ppm in test [1] of at least 90%.

Broadly, the mortality is the percentage killed. High values mean a strong lethal effect, low ones a weak lethal effect. As to `C#CCOc1ccc(C)c([S+]([O-])CCC)c1` (stereo not shown) [compound 4], the mortality entry in test [2] is “no activity”. The control value result in test [1] is “no activity”. Consider `CCCCCCOc1ccc(Cl)c(SCCC)c1` [compound 22], for which the mortality result in test [2] is “no activity”. For the same compound, the control value result in test [1] is “no activity”. For the compound `CCC[S+]([O-])c1cc(OCc2ccc(Cl)cc2)ccc1C` (stereo not shown) [compound 19], the mortality entry in test [2] is “no activity”. In test [1], the control value result is given as “no activity”. As to `[O-][S+](CC(F)(F)F)c1cc(OCCCCCCSC(F)(F)F)c(Cl)cc1Cl` (stereo not shown) [A-0479, 6-trifluoromethylthiohexyl-[2,4-dichloro-5-(2,2,2-trifluoroethylsulfinyl)phenyl] ether], the pest or weed control at 4 ppm in test [1] was at least 90%.

With `C#CCOc1ccc(C)c(SCCC)c1` [compound 3], the control value entry in test [1] is given as “no activity”. Consider `CCCCCCOc1ccc(Cl)c([S+]([O-])CCC)c1` (stereo not shown) [compound 23], for which, in test [2], the mortality entry was “no activity”. In addition, the control value entry in test [1] was “no activity”. Turning to `Cc1cc(F)c(OCCCCC(C)(C)C)cc1[S+]([O-])CC(F)(F)F` (stereo not shown) [A-0086, 5,5-dimethylhexyl-[2-fluoro-4-methyl-5-(2,2,2-trifluoroethylsulfinyl)phenyl] ether], the mortality at 100 ppm in test [2] is at least 90%. In test [1], the pest or weed control at 4 ppm was at least 90%. In test [1], `Cc1cc(C)c([S+]([O-])CC(F)(F)F)cc1OCCCCCCSC(F)(F)F` (stereo not shown) [A-0481, 6-trifluoromethylthiohexyl-[2,4-dimethyl-5-(2,2,2-trifluoroethylsulfinyl)phenyl]ether] yielded a pest or weed control at 4 ppm of at least 90%. Consider `CCCSc1cc(OCc2ccc(Cl)cc2)ccc1C` [compound 18], for which, in test [2], the mortality entry is “no activity”. In test [1], the control value entry is “no activity”. For the compound `Cc1cc(F)c(OCCCCC(C)(C)C)cc1SCC(F)(F)F` [A-0085, 5,5-dimethylhexyl-[2-fluoro-4-methyl-5-(2,2,2-trifluoroethylthio)phenyl] ether], the mortality at 100 ppm in test [2] was at least 90%. In test [1], this compound registered a pest or weed control at 4 ppm of at least 90%. With `CCCSc1cc(OCCCSCc2ccccc2)ccc1C` [compound 36], the mortality entry in test [2] is “no activity”. In addition, the control value entry in test [1] is “no activity”. In test [2], `Cc1ccc(OCCCCCSC(F)(F)F)cc1[S+]([O-])CC(F)(F)F` (stereo not shown) [A-0439, 5-trifluoromethylthiopentyl-[4-methyl-3-(2,2,2-trifluoroethylsulfinyl)phenyl] ether] yielded a mortality at 100 ppm of at least 90%. The compound further yielded a pest or weed control at 4 ppm in test [1] of at least 90%. For the compound `Cc1ccc(OCCCCCSC(F)(F)F)cc1SCC(F)(F)F` [A-0438, 5-trifluoromethylthiopentyl-[4-methyl-3-(2,2,2-trifluoroethylthio)phenyl] ether], in test [2], the mortality at 100 ppm was at least 90%. In test [1], the pest or weed control at 4 ppm was at least 90%. As for `[O-][S+](CC(F)(F)F)c1cc(OCCCCCSC(F)(F)F)c(F)cc1Cl` (racemic) [A-0434, 5-trifluoromethylthiopentyl-[4-chloro-2-fluoro-5-(2,2,2-trifluoroethylsulfinyl)phenyl] ether], the mortality at 100 ppm in test [2] was at least 90%. This compound returned a pest or weed control at 4 ppm in test [1] of at least 90%. In turn, `Cc1cc(F)c(O)cc1SCC(F)(F)F` [C-0001, 2-fluoro-4-methyl-5-(2,2,2-trifluoroethylthio)phenol] returned a mortality at 100 ppm in test [2] of at least 90%. For `CCC[S+]([O-])c1cc(OCC=CCl)ccc1C` (stereo not shown) [compound 6], the mortality entry in test [2] is “no activity”. The control value result in test [1] was “no activity”.

On to `CCCSc1cc(OCC=CCl)ccc1C` [compound 5], for which the mortality result in test [2] is on record as “no activity”. Moreover, the control value result in test [1] is “no activity”. `Cc1cc(C)c([S+]([O-])CC(F)(F)F)cc1OCCc1ccc(OC(F)(F)F)cc1` (stereo not shown) [A-0783, 2-(4′-trifluoromethoxyphenyl)ethyl-[2,4-dimethyl-5-(2,2,2-trifluoroethylsulfinyl)phenyl] ether]: the pest or weed control at 4 ppm in test [1] is at least 90%. `Fc1cc(Cl)c(SCC(F)(F)F)cc1OCCCCCSC(F)(F)F` [A-0433, 5-trifluoromethylthiopentyl-[4-chloro-2-fluoro-5-(2,2,2-trifluoroethylthio)phenyl] ether]: the mortality at 100 ppm in test [2] is at least 90%. In test [1], `FC(F)(F)CSc1cc(OCCCCCCSC(F)(F)F)c(Cl)cc1Cl` [A-0478, 6-trifluoromethylthiohexyl-[2,4-dichloro-5-(2,2,2-trifluoroethylthio)phenyl] ether] registered a pest or weed control at 4 ppm of at least 90%.
